Earlier results, collected in EP0535567A1, “Liposomes containing volatile inhalation anaesthetics, their preparation and their use” (B. Braun Melsungen AG, priority 1991, dated 1993).

Conditions: fraction of the anaesthetic that is metabolised

SMILES: FC(F)OC(Cl)C(F)(F)F (stereo not shown) [Isofluran, 1-Chlor-2,2,2-trifluorethyl(difluormethyl)ether]
- verstoffwechselt: < 2%
